Experimental data published in PubChem BioAssay AID1259407 (Chemical Carcinogenesis Research Information System (CCRIS), 2018).
Calls of active or inactive are those of the source. No rule for the calls is given here.

Tested on: CCRIS mutagenicity, Ames/micronucleus/aberration tests
Assay: CCRIS mutagenicity studies

Measured: mutagenic call

CN1C[C@H](C(=O)N[C@]2(C)O[C@@]3(O)[C@@H]4CCCN4C(=O)[C@H](Cc4ccccc4)N3C2=O)C=C2c3cccc4[nH]cc(c34)C[C@H]21
inactive: Test System: AMES SALMONELLA TYPHIMURIUM, Strain/Indicator: TA98, Metabolic Activation: HAMSTER, LIVER, S-9, AROCLOR 1254 (10%), Method: PREINCUBATION inactive; negative | Test System: AMES SALMONELLA TYPHIMURIUM, Strain/Indicator: TA98, Metabolic Activation: HAMSTER, LIVER, S-9, AROCLOR 1254, Method: STANDARD PLATE inactive; negative | Test System: AMES SALMONELLA TYPHIMURIUM, Strain/Indicator: TA98, Metabolic Activation: NONE, Method: PREINCUBATION inactive; negative | Test System: AMES SALMONELLA TYPHIMURIUM, Strain/Indicator: TA98, Metabolic Activation: NONE, Method: STANDARD PLATE inactive; negative | Test System: AMES SALMONELLA TYPHIMURIUM, Strain/Indicator: TA98, Metabolic Activation: RAT, LIVER, S-9, AROCLOR 1254 (10%), Method: PREINCUBATION inactive; negative | Test System: AMES SALMONELLA TYPHIMURIUM, Strain/Indicator: TA98, Metabolic Activation: RAT, LIVER, S-9, AROCLOR 1254, Method: STANDARD PLATE inactive; negative | Test System: AMES SALMONELLA TYPHIMURIUM, Strain/Indicator: TA100, Metabolic Activation: HAMSTER, LIVER, S-9, AROCLOR 1254 (10%), Method: PREINCUBATION inactive; negative | Test System: AMES SALMONELLA TYPHIMURIUM, Strain/Indicator: TA100, Metabolic Activation: HAMSTER, LIVER, S-9, AROCLOR 1254, Method: STANDARD PLATE inactive; negative | Test System: AMES SALMONELLA TYPHIMURIUM, Strain/Indicator: TA100, Metabolic Activation: NONE, Method: PREINCUBATION inactive; negative | Test System: AMES SALMONELLA TYPHIMURIUM, Strain/Indicator: TA100, Metabolic Activation: NONE, Method: STANDARD PLATE inactive; negative | Test System: AMES SALMONELLA TYPHIMURIUM, Strain/Indicator: TA100, Metabolic Activation: RAT, LIVER, S-9, AROCLOR 1254 (10%), Method: PREINCUBATION inactive; negative | Test System: AMES SALMONELLA TYPHIMURIUM, Strain/Indicator: TA100, Metabolic Activation: RAT, LIVER, S-9, AROCLOR 1254, Method: STANDARD PLATE inactive; negative | Test System: AMES SALMONELLA TYPHIMURIUM, Strain/Indicator: TA1535, Metabolic Activation: HAMSTER, LIVER, S-9, AROCLOR 1254 (10%), Method: PREINCUBATION inactive; negative | Test System: AMES SALMONELLA TYPHIMURIUM, Strain/Indicator: TA1535, Metabolic Activation: HAMSTER, LIVER, S-9, AROCLOR 1254, Method: STANDARD PLATE inactive; negative | Test System: AMES SALMONELLA TYPHIMURIUM, Strain/Indicator: TA1535, Metabolic Activation: NONE, Method: PREINCUBATION inactive; negative | Test System: AMES SALMONELLA TYPHIMURIUM, Strain/Indicator: TA1535, Metabolic Activation: NONE, Method: STANDARD PLATE inactive; negative | Test System: AMES SALMONELLA TYPHIMURIUM, Strain/Indicator: TA1535, Metabolic Activation: RAT, LIVER, S-9, AROCLOR 1254 (10%), Method: PREINCUBATION inactive; negative | Test System: AMES SALMONELLA TYPHIMURIUM, Strain/Indicator: TA1535, Metabolic Activation: RAT, LIVER, S-9, AROCLOR 1254, Method: STANDARD PLATE inactive; negative | Test System: AMES SALMONELLA TYPHIMURIUM, Strain/Indicator: TA1537, Metabolic Activation: HAMSTER, LIVER, S-9, AROCLOR 1254 (10%), Method: PREINCUBATION inactive; negative | Test System: AMES SALMONELLA TYPHIMURIUM, Strain/Indicator: TA1537, Metabolic Activation: HAMSTER, LIVER, S-9, AROCLOR 1254, Method: STANDARD PLATE inactive; negative | Test System: AMES SALMONELLA TYPHIMURIUM, Strain/Indicator: TA1537, Metabolic Activation: NONE, Method: PREINCUBATION inactive; negative | Test System: AMES SALMONELLA TYPHIMURIUM, Strain/Indicator: TA1537, Metabolic Activation: NONE, Method: STANDARD PLATE inactive; negative | Test System: AMES SALMONELLA TYPHIMURIUM, Strain/Indicator: TA1537, Metabolic Activation: RAT, LIVER, S-9, AROCLOR 1254 (10%), Method: PREINCUBATION inactive; negative | Test System: AMES SALMONELLA TYPHIMURIUM, Strain/Indicator: TA1537, Metabolic Activation: RAT, LIVER, S-9, AROCLOR 1254, Method: STANDARD PLATE inactive; negative | Test System: MOUSE LYMPHOMA, Strain/Indicator: L5178Y (TK+/TK-), Metabolic Activation: NONE, Method: SUSPENSION/PLATE inactive; negative | Test System: MOUSE LYMPHOMA, Strain/Indicator: L5178Y (TK+/TK-), Metabolic Activation: RAT, LIVER, S-9, AROCLOR 1254, Method: SUSPENSION/PLATE inactive; negative | Test System: Mouse lymphoma, Strain/Indicator: L5178Y (tk+/tk-), Metabolic Activation: None, Method: Suspension/plate inactive; negative | Test System: Mouse lymphoma, Strain/Indicator: L5178Y (tk+/tk-), Metabolic Activation: Rat, Liver, S-9, Aroclor 1254, Method: Suspension/plate inactive; negative
